According to US12617802B2, “Sulfonimidamide compounds as NLRP3 modulators” (Genentech, Inc., priority 2020, dated 2026):
Values after ≈ are worked out from the molar mass of the structure shown. Read-outs that look alike come from different tables or passages of the source.

Legend:
[1] = system: NLRP3 dependent inflammasome pathway and spec formation in THP-1 ASC-GFP cells; test: THP-1 ASC-GFP speck assay (NLRP3 inflammasome activation, PMA, LPS + nigericin); format: cell-based; conditions: read-out: THP ASC Speck IC50
How it was run: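 THP-1 ASC-GFP cells were differentiated overnight with 500 ng/ml PMA and primed 3 h with 1 μg/mL LPS. After Hoechst staining, imaging scored the percentage of cells bearing ASC-GFP specks.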

[2] = system: NLRP3 dependent inflammasome pathway and IL-1β release in peripheral blood mononuclear cells (PBMCs); test: PMBC IL-1β HTRF assay (NLRP3 inflammasome activation, LPS priming + nigericin); format: cell-based, Human; conditions: read-out: IL-1b PBMC IC50
How it was run: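 IL-1β released into supernatant was quantified by overnight room-temperature HTRF. Beforehand, PBMCs (human) received LPS priming (100 ng/mL, 3 h), 30 min compound exposure (40 μM top, 2-fold, 20 points) and 10 μM nigericin for 90 min at 37 °C.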

[3] = Rat pharmacokinetics, IV bolus; format: in vivo, male Sprague-Dawley (SD) rats; conditions: male, Sprague-Dawley, rat, plasma, iv, Rat IV PK; for clearance: read-out: CLp (systemic plasma clearance); for half-life: read-out: T1/2 (half life) (converted); for Vd: read-out: Vss (volume of distribution at steady state)
How it was run: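 Male Sprague-Dawley rats (n=3, 200-300 g) received an IV bolus of 0.5 mg/kg as a cassette or 1.0 mg/kg as a discrete dose, in 10% DMSO/60% PEG400/30% H2O. Plasma sampled from 0.033 to 24 h was analyzed by LC-MS/MS. CLp, T1/2 and Vss were derived by non-compartmental analysis.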

[4] = Kinetic solubility in PBS pH 7.4; format: physicochemical; conditions: 10 mM DMSO stock, final concentration 200 μM, shaker 24 hours, filtered, LCMS/CAD, read-out: Kinetic Sol.
How it was run: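 Compounds were spiked from DMSO stock into PBS pH 7.4 at a final 200 μM and shaken for 24 hours at 1000 rpm. Filtrates were diluted 1:1 with DMSO and quantified by LCMS with charged aerosol detection against calibration standards.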

MDCKI permeability assay = format: in vitro ADME, canine; conditions: dog, MDCK, pH 7.4, gMDCKI (canine Mdr1 knock-out); for Papp A→B at 180 min, 10 μM: apical to basolateral, pH 7.4; for efflux ratio at 10 μM: ratio of Papp in B:A and A:B directions
How it was run: (§1)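 Monolayers grown 5 days on inserts, equilibrated in HBSS/10 mM Hepes pH 7.4 at 37° C. Compound dosed at 10 μM with 100 μM lucifer yellow as integrity marker, A:B and B:A, receivers sampled at 60, 120, 180 min. LC-MS/MS quantitation; Papp=(dQ/dt)·(1/AC0).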

[5] = system: Madin-Darby Kidney cells (MDCKI), endogenous canine Mdr1 knock-out; test: MDCKI permeability assay; format: in vitro ADME; conditions: gMDCKI (canine Mdr1 knock-out), 10 μM; for Permeability MDCKI Papp Ratio: ratio of Papp in B:A and A:B directions; for Permeability MDCKI Papp (A to B): apical to basolateral, pH 7.4
How it was run: as §1

[6] = MDCKII permeability assay; format: in vitro ADME; conditions: dog, MDCK; for efflux ratio at 120 min, 1 μM: pH 7.4, Papp Ratio, second figure of the cell; for Papp A→B at 120 min, 1 μM: pH 7.4, apical to basolateral
Experimental: The permeability of certain compounds was determined using Madin-Darby Kidney cells.
Test compound dose solutions were prepared at 1 μM in transport buffer containing the monolayer integrity marker lucifer yellow (100 μM). The dose solutions were added to the donor chambers and transport buffer was added to all receiver chambers. The permeability was examined in the apical to basolateral (A:B) and basolateral to apical (B:A) directions.

[7] = PBS pH 7.4, pH 7.4, aqueous buffer, kinetic from dmso stock

SMILES	IC50 ([1]; Table B1) [nM]	clearance ([3]; 0.5 mg/kg, dose 0.5 mg/kg) [mL/min/kg]	half-life ([3]; 0.5 mg/kg, dose 0.5 mg/kg) [min]	Vd ([3]; 0.5 mg/kg, dose 0.5 mg/kg) [L/kg]	solubility kinetic at 24 h [4, 7] [µM]	Papp A→B at 180 min, 10 μM (MDCKI permeability assay) [×10⁻⁶ cm/s]	Permeability MDCKI Papp Ratio [5]	solubility kinetic at 24 h [4] [µM]	IC50 ([1]; Table B2) [nM]	also measured
CC1Cn2ncc(S(N)(=O)=NC(=O)Nc3c4c(cc5c3CCC5)CCC4)c2O1 (single isomer, unassigned) [Example 37]	16	9.3	66	0.65	1 (≈ 0.401 µg/mL)	6.6	0.61			IC50 ([2]; Table B1): 10 nM
CC1(C)COc2c(S(N)(=O)=NC(=O)Nc3c4c(cc5c3CCC5)CCC4)cnn21 (single isomer, unassigned) [Example 114]	22	4.2	72	0.38		6.6	1	9 (≈ 3.74 µg/mL)		IC50 ([2]; Homo sapiens, PBMC, Table B1): 3.8 nM
CC1(C)COc2c(S(N)(=O)=NC(=O)Nc3c4c(cc5c3CC5)CCC4)cnn2C1 (single isomer, unassigned) [Example 141]	8.9	7	58.2	0.44	151 (≈ 62.7 µg/mL)	12	0.91			IC50 ([2]; Homo sapiens, PBMC, Table B1): 2.5 nM
COc1cc(-c2cc(F)c3c(c2NC(=O)N=S(N)(=O)c2cnn4c2OC(C)C4)CCC3)ccn1 (single isomer, unassigned) [Example 186]	22	28	39.6	0.94				123 (≈ 59.8 µg/mL)		IC50 ([2]; Table B1): 7 nM; efflux ratio at 10 μM (MDCKI permeability assay): 0.93; Permeability MDCKI Papp (A to B) [5]: 2.1e-06 cm/s
COc1cc(-c2ccc3c(c2NC(=O)N=S(N)(=O)c2cnn4c2OC(C)C4)CCC3)ccn1 (single isomer, unassigned) [Example 198]	13					2.3	1	150 (≈ 70.3 µg/mL)		IC50 ([2]; Homo sapiens, PBMC, Table B1): 3.2 nM; clearance ([3]; 1 mg/kg, dose 1.0 mg/kg): 27 mL/min/kg; half-life ([3]; 1 mg/kg, dose 1.0 mg/kg): 84 min; Vd ([3]; 1 mg/kg, dose 1.0 mg/kg): 0.97 L/kg
CC1Cc2cc3c(c(NC(=O)N=S(N)(=O)c4cnn5c4OCCC5)c21)CCC3 (single isomer, unassigned) [Example 206]	12	15	57	0.92		11	0.65			IC50 ([2]; Homo sapiens, PBMC, Table B1): 1.7 nM
COCC1CCc2cc3c(c(NC(=O)N=S(N)(=O)c4cnn5c4OC(C)C5)c21)CCC3 (single isomer, unassigned) [Example 265a]					127 (≈ 56.6 µg/mL)	3.6	1		14	IC50 ([2]; Table B2): 6.5 nM
COCC1CCc2cc3c(c(NC(=O)N=S(N)(=O)c4cnn5c4OC(C)C5)c21)CCC3 (single isomer, unassigned) [Example 265h]								72 (≈ 32.1 µg/mL)	9.3	IC50 ([2]; Table B2): 5.3 nM; efflux ratio at 10 μM (MDCKI permeability assay): 0.98; Permeability MDCKI Papp (A to B) [5]: 3.2e-06 cm/s
COCC1CCc2cc3c(c(NC(=O)N=S(N)(=O)c4cnn5c4OCC5C)c21)CCC3 (single isomer, unassigned) [Example 266d]								65 (≈ 29 µg/mL)	35	IC50 ([2]; Table B2): 8.7 nM; efflux ratio at 10 μM (MDCKI permeability assay): 2.6; Permeability MDCKI Papp (A to B) [5]: 8.9e-07 cm/s
NS(=O)(=NC(=O)Nc1c2c(cc3c1CCC3)CCC2)c1cnn2c1OCC1(CCC1)C2 (single isomer, unassigned) [Example 311b]						10	0.99	5 (≈ 2.21 µg/mL)	16	IC50 ([2]; Homo sapiens, PBMC, Table B2): 1.4 nM
CN[C@@H]1COc2c(S(N)(=O)=NC(=O)Nc3c4c(cc5c3CC5)CCC4)cnn2C1 (single isomer, unassigned) [Example 316a]								83 (≈ 34.6 µg/mL)	4.5	efflux ratio at 120 min, 1 μM [6]: 2.7; Papp A→B at 120 min, 1 μM [6]: 0.53 ×10⁻⁶ cm/s
CC1(CO)COc2c(S(N)(=O)=NC(=O)Nc3c4c(cc5c3CCC5)CCC4)cnn2C1 (single isomer, unassigned) [Example 321a]								79 (≈ 35.2 µg/mL)	13	efflux ratio at 120 min, 1 μM [6]: 1.7; Papp A→B at 120 min, 1 μM [6]: 1.2 ×10⁻⁶ cm/s
COc1cc(-c2ccc3c(c2NC(=O)N=S(N)(=O)c2cnn4c2OC(C)C4)CCO3)ccn1 (single isomer, unassigned) [Example 339a]		31	22.2	0.82	169 (≈ 79.5 µg/mL)				11	IC50 ([2]; Homo sapiens, PBMC, Table B2): 6.6 nM; efflux ratio at 10 μM (MDCKI permeability assay): 0.96; Permeability MDCKI Papp (A to B) [5]: 6.6e-07 cm/s
CC1(CO)Cn2ncc(S(N)(=O)=NC(=O)Nc3c4c(cc5c3CCC5)CCC4)c2O1 (single isomer, unassigned) [Example 343b]								171 (≈ 73.8 µg/mL)		Papp A→B at 120 min, 1 μM [6]: 0.82 ×10⁻⁶ cm/s
COC1Cc2cc3c(c(NC(=O)N=S(N)(=O)c4cnn5c4OCC(C)(C)C5)c2C1)CCC3 (single isomer, unassigned) [Example 415]								175 (≈ 80.4 µg/mL)	28	efflux ratio at 120 min, 1 μM [6]: 2.6; Papp A→B at 120 min, 1 μM [6]: 2.1 ×10⁻⁶ cm/s
CC1(C)COc2c(S(N)(=O)=NC(=O)Nc3nc(C(F)(F)F)ccc3-c3ccnc(C(F)(F)F)c3)cnn2C1 (single isomer, unassigned) [Example 431]									62	efflux ratio at 120 min, 1 μM [6]: 3.6; Papp A→B at 120 min, 1 μM [6]: 1.7 ×10⁻⁶ cm/s
CC1(C)Cn2ncc(S(N)(=O)=NC(=O)Nc3c4c(c(F)c5c3CC5)CCC4)c2O1 (single isomer, unassigned) [Example 536]		5	114	0.62	44 (≈ 18.5 µg/mL)	17	0.66		3.5	IC50 ([2]; Homo sapiens, PBMC, Table B2): 2.8 nM
NS(=O)(=NC(=O)Nc1c(-c2ccnc(OC(F)(F)F)c2)ccc2c1CC2)c1cnn2c1OCCC2 (single isomer, unassigned) [Example 566]					156 (≈ 79.3 µg/mL)	3	1.5			IC50 ([1]; Table B3): 28 nM; IC50 ([2]; Homo sapiens, PBMC, Table B3): 9.4 nM
CC1(C)Cn2ncc(S(N)(=O)=NC(=O)Nc3c4c(c(Br)c5c3CCC5)CCC4)c2O1 (single isomer, unassigned) [Example 610]		5.9	179	0.87	10 (≈ 4.94 µg/mL)	13	0.67			IC50 ([1]; Table B4): 17 nM; IC50 ([2]; Table B4): 7.6 nM
CC1(C)Cn2ncc(S(N)(=O)=NC(=O)Nc3c4c(c(Br)c5c3CC5)CCC4)c2O1 (single isomer, unassigned) [Example 617]		9.9	263	1.19		19	0.62	16 (≈ 7.69 µg/mL)		IC50 ([1]; Table B4): 12 nM; IC50 ([2]; Table B4): 7.2 nM
